Measured values as given in US20040097411A1, “Method of treating left ventricular dysfunction” (Allegheny-Singer Research Institute, priority 2002, published 2004).
Like-named read-outs stand apart in the source and are kept apart here.

What was measured:
[1] = system: conscious, chronically instrumented dogs; assay: Acute graded infusion, hemodynamic effects in conscious chronically instrumented dogs (normal and advanced dilated cardiomyopathy); format: in vivo, dog
Text: FIGS. 2a-2d show the dose response to rGLP-1 in normal conscious dogs and conscious dogs with advanced DCM compared to the response to the sympathomimetic, dobutamine.
FIG. 1 illustrates characteristic instrumentation of conscious, chronically instrumented dogs studied in the laboratory. Under sterile surgical technique, the animals are instrumented as indicated and allowed to recover fully from their surgery. At the time, they are taught to lie quietly on the experimental table before study. To determine if acute GLP-1 (7-36 amide) infusion is associated with hemodynamic effects in conscious chronically instrumented dogs, graded infusions for ten minutes at doses of 1.25, 2.5, 5, 10 and 20 pmol/kg/min in six normal dogs and in six dogs with advanced dilated cardiomyopathy were studied. The response of the graded infusion to the classic iontopic agent, Dobutamine, (2.5, 5, 7.5, 10 and 15μ/kg/min.) was compared. […] Nikolaidis, L A, Hentosz, T, Doverspike, A, et al., “Catecholamine stimulation is associated with impaired myocardial O2 utilization in heart failure,” Cardiovas. Res., 2002;53:392-404, incorporated by reference herein.

[2] = system: adults presenting with severe acute myocardial infarction; assay: 72 hour continuous intravenous infusion in adults with severe acute myocardial infarction; format: in vivo, human
Method: The effects of continuous intravenous infusion of GLP-1 (1.5 pmol/kg/min) intravenously for 72 hours was studied in ten adults presenting with severe acute myocardial infarction. These were compared to eleven adults with similar large myocardial infarction (LVEF<35%) all of whom underwent percutaneous coronary intervention and subsequently were treated for 72 hours thereafter.

[3] = cited from earlier work; for plasma insulin levels: hyperglycemia (10.4 mmol/l, 187 mg/dl), GIP 2.0, GLP-1 1.5 pmol·kg−1·min−1; for insulinotropic action: normal subjects during euglycemia
[4] = system: conscious dogs with advanced DCM; assay: Myocardial substrate uptake and metabolic parameters in dogs with advanced DCM (Table 1); format: in vivo, dog; settings: for Glucose myocardial uptake / Lactate myocardial uptake / NE (transmyocardial norepinephrine uptake) / NEFA myocardial uptake / Insulin/Glucagon: GLP-1 group; for Insulin/Glucagon: insulin pmol/L to glucagon pg/ml
Method: (§1) A 48 hour continuous intravenous infusion of GLP-1 (7-36 amide), (1.5 pmol/kg/min) in five normal dogs to determine the hemodynamic effect of chronic infusion in the absence of dilated cardiomyopathy was conducted. […] FIGS. 3-5 illustrates the effects of GLP-1 (7-36 amide) infusion (1.5 pmol/kg/min) intravenously for 48 hours in 20 conscious, chronically instrumented animals with advanced heart failure. These effects have been compared to similarly instrumented animals with advanced heart failure that received a control saline infusion of equal volume ([…]) illustrate the hemodynamic effects of chronic GLP-1 infusion in advanced DCM. GLP-1 (7-36 amide) infusion was associated with a restoration of left ventricular pressure, improvement in contractility, improvement in cardiac output, and reduction in heart rate and LVEDP. […] GLP-1 was associated with restoration of endothelial dependent vaso dilatation response to acetylcholine (FIG. 7). […] GLP-1 had […] increased plasma insulin levels in the setting of euglycemia.

[5] = system: conscious dogs with advanced DCM; assay: 48 hour intravenous infusion in conscious dogs with advanced heart failure (DCM): hemodynamics, sympathetic activity, coronary vasodilation; format: in vivo, dog
Text: FIGS. 3a-3d show the effects of r GLP-1 on LV systolic pressure, LV end diastolic pressure, LV dP/dt, and heart rate in conscious dogs with advanced DCM compared to saline control.
FIGS. 4a-4d show the effects of rGLP-1 on cardiac output, stroke volume, LV ejection fraction, systemic vascular resistance in conscious dogs with advanced DCM compared to saline control.
FIGS. 5a and 5b show the effects of rGLP-1 on stroke work and LV external efficiency in conscious dogs with advanced DCM compared to saline control.
FIGS. 6a and 6b show the effects of rGLP-1 on transmyocardial norepinephrine uptake as a reflection of sympathetic drive to the myocardium in conscious dogs with advanced DCM compared to saline controls.
FIGS. 7a and 7b show the effects of rGLP-1 on endothelial dependent coronary vasodilation in conscious dogs. Advanced DCM was associated with impaired coronary flow responses to acetylcholine. These responses were restored following 48-hour infusion of rGLP-1. The response to the non-endothelial dependent vasodilator, nitroglycerine was unaffected.
as §1

[6] = system: rat cardiomyocytes; settings: in vitro; cited from earlier work
[7] = system: normal dogs; assay: 48 hour continuous intravenous infusion in normal dogs, hemodynamic effect; format: in vivo, dog; settings: 1.5 pmol/kg/min i.v. 48 hour
Method: as §1

[8] = system: restrained rats; settings: rat, in vivo, sc; cited from earlier work
[9] = when GIP is administered; cited from earlier work
[10] = hyperglycemia-only control ~280
[11] = Baseline (before CHF and infusion)
[12] = advanced DCM, vs saline controls
[13] = graded infusions for ten minutes, 1.25-20 pmol/kg/min, normal dogs and dogs with advanced dilated cardiomyopathy
[14] = 1.5 pmol/kg/min i.v. 48 hours, advanced heart failure, vs saline
[15] = 48-hour infusion, advanced DCM, FIG. 7

CC(CCc1ccc(O)cc1)NCCc1ccc(O)c(O)c1 (stereo not drawn) [Dobutamine, reference compound]
hemodynamic effects of graded infusion ([1]; dogs in heart failure): de-sensitized effects | hemodynamic effects of graded infusion ([1]; normal dogs): predictable effects

GLP-1 (7-36 amide)
left ventricular hemodynamics ([2]; 1.5 pmol/kg/min i.v. 72 hours after PCI, vs standard care, FIG. 8): overall improvement | left ventricular function ([2]; patients with large myocardial infarctions, 1.5 pmol/kg/min i.v. 72 hours): improvement | plasma insulin levels ([3]; hyperglycemia-only control 47): ~333 μU/ml | plasma insulin levels [3, 10]: ~2000 pmol/L | incretin potency comparison ([3]; insulinotropic action during hyperglycemia): more potent than GIP | insulinotropic action [3]: insulinotropic | Glucose myocardial uptake ([4]; 24 hrs of infusion): 8.72 ± 1.05 µmol/min | Lactate myocardial uptake ([4]; 24 hrs of infusion): 3.61 ± 0.62 µmol/min | NE (transmyocardial norepinephrine uptake) ([4]; 24 hrs of infusion): 26.3 ± 3.1 pmol/min | NEFA myocardial uptake ([4]; 24 hrs of infusion): 4.53 ± 0.58 µmol/min | Glucose myocardial uptake ([4]; 48 hrs of infusion): 7.00 ± 0.94 µmol/min | Lactate myocardial uptake ([4]; 48 hrs of infusion): 4.04 ± 0.74 µmol/min | NE (transmyocardial norepinephrine uptake) ([4]; 48 hrs of infusion): 30.5 ± 4.9 pmol/min | NEFA myocardial uptake ([4]; 48 hrs of infusion): 5.16 ± 0.73 µmol/min | Insulin/Glucagon ([4]; 48 hrs of infusion): 3.12 ± 0.24 | Glucose myocardial uptake [4, 11]: 6.67 ± 1.22 µmol/min | Lactate myocardial uptake [4, 11]: 4.78 ± 1.04 µmol/min | NE (transmyocardial norepinephrine uptake) [4, 11]: 30.9 ± 4.8 pmol/min | NEFA myocardial uptake [4, 11]: 5.23 ± 0.83 µmol/min | Insulin/Glucagon ([4]; Baseline): 1.36 ± 0.21 | Glucose myocardial uptake ([4]; CHF (before infusion)): 3.44 ± 0.81 µmol/min | Lactate myocardial uptake ([4]; CHF (before infusion)): 2.64 ± 0.91 µmol/min | NE (transmyocardial norepinephrine uptake) ([4]; CHF (before infusion)): 18.7 ± 3.6 pmol/min | NEFA myocardial uptake ([4]; CHF (before infusion)): 3.17 ± 0.61 µmol/min | Insulin/Glucagon ([4]; CHF (before infusion)): 1.79 ± 0.29 | plasma glucagon levels ([4]; advanced DCM): effective in reducing | myocardial glucose uptake [4, 12]: enhanced | ratio of insulin (pmol/L) to glucagon (pg/ml) [4, 12]: significant increase | plasma insulin levels ([4]; setting of euglycemia): little effect | cardiac output [1, 13]: no significant, dose related effects | heart rate [1, 13]: no significant, dose related effects | left ventricular dP/dt [1, 13]: no significant, dose related effects | left ventricular pressure [1, 13]: no significant, dose related effects | acute hemodynamic effects (dose response) ([1]; normal conscious dogs and conscious dogs with advanced DCM, FIGS. 2a-2d): no acute hemodynamic effects | LVEDP [5, 14]: reduction | cardiac output [5, 14]: improvement | contractility [5, 14]: improvement | heart rate [5, 14]: reduction | left ventricular pressure [5, 14]: restoration | endothelial dependent vasodilatation (coronary flow) response to acetylcholine [5, 15]: restoration | response to the non-endothelial dependent vasodilator nitroglycerine [5, 15]: unaffected | endothelial dependent vasodilatation (coronary flow) response to acetylcholine ([5]; 48-hour infusion, advanced DCM, FIG. 7, listed as rGLP-1): restored | myocardial sympathetic activity ([5]; infusion compared to saline, FIG. 6): suppression | cAMP [6]: increases | myocyte contractility [6]: no effect | hemodynamic effects of chronic infusion [7]: no significant hemodynamic effects

exendin-4 [excendin 4]
blood pressure [8]: hypertension | heart rate [8]: tachycardia

glucose-dependent insulinotropic polypeptide [GIP]
plasma insulin levels ([3]; hyperglycemia-only control 47): ~150 μU/ml | plasma insulin levels [3, 10]: ~900 pmol/L | insulinotropic action [3]: not | increase of B-cell sensitivity to second-generation sulfonylurea [9]: 2 fold
